Measurements reported in US20210047441A1, “ANTHOCYANIDIN COMPLEX” (priority 2012, published 2021).

How the values were obtained:
[1] = Solubility of delphinidin chloride in aqueous cyclodextrin solutions (Example 1); type: physicochemical; details: pure water, cyclodextrin concentration 0; stirred 20 hours at 30° C. in the dark, filtered 0.22 μm
[2] = Stability tests in aqueous solution, 0.9% NaCl at 37° C. (Example 5); type: physicochemical; details: 0.9% NaCl solution, dark, start 1.584 mg/ml (complex), 0.0216 mg/ml (uncomplexed)
Experimental: In order to determine the content of delphinidin chloride in the delphinidin-containing solutions, a reverse phase HPLC process similar to that already described above was used. The following reagents were used thereby:
The delphinidin content was determined after 1, 2, 3 and 4 hours.
The determination of the delphinidin content in the samples was calculated with the aid of Agilent ChemStation software using calibration with the described external standard.

With `Oc1cc(O)c2cc(O)c(-c3cc(O)c(O)c(O)c3)[o+]c2c1.[Cl-]` [Delphinidin chloride] the “Achievable solubility, Delphinidin chloride” value [1] was 70 µg/mL, the “Delphinidin content as percentage of the starting concentration” value (shortened to “Delphinidin content as percentage”) ([2]; 0 h) was 100% and the “Delphinidin content as percentage” value ([2]; 1 h) was 8.3%. The “Delphinidin content as percentage” value ([2]; 2 h) was 6.5%, the “Delphinidin content as percentage” value ([2]; 3 h) was 5.6% and the “Delphinidin content as percentage” value ([2]; 4 h) was 5.1%.
